In brackets after ≈: the same amount, converted by molar mass. Several values for one entry are separate records, joined by “and”; a condition that tells them apart may be missing. Equal entries are not always repeated. Where two headings read alike, the source gives them in different places.
Legend:
Format in all cases: cell-based
[1] = test system: Plasmodium falciparum clone CDC Indochina III (W-2); experiment: In vitro inhibition of [3H]hypoxanthine uptake, P. falciparum W-2 clone; details: for IC50: Plasmodium falciparum, read-out: IC50 (W-2)
Description: (§1) The in vitro assays were conducted by using a modification of the semiautomated microdilution technique of Desjardins et al.^11 and Chulay et al.^12 Two strains of Plasmodium falciparum clones, from CDC Indochina III (W-2), CDC Sierra Leone I (D-6). […] These solutions were subsequently serially diluted 2-fold with a Biomek 1000® (Beckman, Fullerton, Calif.) over 11 different concentrations. The parasites were exposed to serial dilutions of each compound for 48 h and incubated at 37° C. with 5% O2, 5% CO2, and 90% N2 prior to the addition of [^3H]hypoxanthine. […] Uptake of [^3H]hypoxanthine was measured with a Packard Topcount scintillation counter. […] The values without parentheses indicate culture in blood serum which more closely resemble conditions in a living animal.
(§2) The numbers associated with both W2 and D6 refer to IC50 values and the units are ng/ml.

[2] = test system: Plasmodium falciparum clone CDC Sierra Leone I (D-6); experiment: In vitro inhibition of [3H]hypoxanthine uptake, P. falciparum D-6 clone; details: for IC50: Plasmodium falciparum, read-out: IC50 (D-6)
Description: as §1, §2

[3] = test system: Plasmodium falciparum clone Thai TM90C2B; experiment: In vitro inhibition of [3H]hypoxanthine uptake, P. falciparum TM90C2B; details: values without parentheses: blood serum (footnote: blood plasma) replacing Albumax; for IC50: Plasmodium falciparum, TM90C2B
Description: (§3) The in vitro assays were conducted by using a modification of the semiautomated microdilution technique of Desjardins et al.^11 and Chulay et al.^12 Two strains of Plasmodium falciparum clones, from CDC Indochina III (W-2), CDC Sierra Leone I (D-6). […] They were derived by direct visualization and micromanipulation from patient isolates.^13 Test compounds were initially dissolved in DMSO and diluted 400-fold in RPMI 1640 culture medium supplemented with 25 mM Hepes, 32 mM HaHCO3, and 10% Albumax I® (GIBCO BRL, Grand Island, N.Y.). These solutions were subsequently serially diluted 2-fold with a Biomek 1000® (Beckman, Fullerton, Calif.) over 11 different concentrations. The parasites were exposed to serial dilutions of each compound for 48 h and incubated at 37° C. with 5% O2, 5% CO2, and 90% N2 prior to the addition of [^3H]hypoxanthine. After a further incubation of 18 h, parasite DNA was harvested from each microtiter well using Packard Filtermate 196 Harvester® (Meriden, Conn.) onto glass filters. Uptake of [^3H]hypoxanthine was measured with a Packard Topcount scintillation counter. […] This procedure was repeated with the test compounds initially dissolved in DMSO and diluted 400-fold in RPMI 1640 culture medium supplemented with 25 mM Hepes, 32 mM HaHCO3, and with blood serum replacing the 10% Albumax I® (see Table 1, figures without parentheses). The values without parentheses indicate culture in blood serum which more closely resemble conditions in a living animal.
(§4) Four strains of Plasmodium falciparum clones, from CDC Indochina III (W-2), CDC Sierra Leone I (D-6), Thai WR75-TM9, and Thai TM90C2B were utilized in susceptibility testing and the IC50 results appear in Table 1.

[4] = test system: Plasmodium falciparum clone Thai WR75-TM9; experiment: In vitro inhibition of [3H]hypoxanthine uptake, P. falciparum WR75-TM9; details: values without parentheses: blood serum (footnote: blood plasma) replacing Albumax; for IC50: Plasmodium falciparum
Description: as §3, §4

[5] = test system: Plasmodium falciparum; experiment: In vitro antimalarial activity against Plasmodium falciparum (strain not given); details: judged from the IC50 values of Table 1
Description: as §3, §4

[6] = values in parentheses: culture medium with 10% Albumax I
[7] = values without parentheses: blood serum (footnote: blood plasma) replacing Albumax

SMILES	IC50 [1, 6] [ng/mL]	IC50 [1, 7] [ng/mL]	IC50 [2, 6] [ng/mL]	IC50 [2, 7] [ng/mL]	IC50 [3] [ng/mL]	IC50 (W-2) [1, 7]	IC50 (D-6) [2, 7]	IC50 (TM90C2B) [3]	IC50 [4] [ng/mL]	IC50 (WR75-TM9) [4]	effectiveness in treating/reducing malaria parasites as shown in Table 1 [5]
Cc1ccc2nc3n(c(=O)c2c1)-c1ccc(F)cc1C3=O [Example 11]	2.8 (≈ 0.00999 µM)	14.7 (≈ 0.0524 µM)	4.9 (≈ 0.0175 µM)	22.1 (≈ 0.0787 µM)	16.4 (≈ 0.0585 µM)						
O=C1c2cc(F)ccc2-n2c1nc1cc(F)ccc1c2=O [Example 12]	1.6 (≈ 0.00563 µM)	5.27 (≈ 0.0186 µM)	4.9 (≈ 0.0172 µM)	8.54 (≈ 0.03 µM)	9.74 (≈ 0.0343 µM)	5.787 ng/mL and 6.539 ng/mL	14.239 ng/mL and 11.005 ng/mL	16.914 ng/mL and 11.113 ng/mL	12 (≈ 0.042 µM)	16.249 ng/mL and 19.374 ng/mL	
O=C1c2cc(F)ccc2-n2c1nc1ncccc1c2=O [Example 17]	0.84 (≈ 0.00314 µM)	2.12 (≈ 0.00795 µM)	1.53 (≈ 0.00573 µM)	4.93 (≈ 0.0184 µM)	4.21 (≈ 0.0157 µM)				9.93 (≈ 0.0372 µM)	8.002 ng/mL (≈ 0.0299 µM)	
O=C1c2cc(F)ccc2-n2c1nc1c(F)cccc1c2=O [Example 19]	1.58 (≈ 0.00556 µM)	8.14 (≈ 0.0286 µM)	2.57 (≈ 0.00904 µM)	13.5 (≈ 0.0476 µM)	9.78 (≈ 0.0344 µM)						
O=C1c2cc(Cl)ccc2-n2c1nc1ncccc1c2=O [Example 21]	0.43 (≈ 0.00152 µM)	1.28 (≈ 0.00451 µM)	0.93 (≈ 0.00328 µM)	0.926 (≈ 0.00326 µM)	2.3 (≈ 0.00811 µM)						most effective
CCOC(=O)c1ccc2c(c1)C(=O)c1nc3ncccc3c(=O)n1-2 [Example 24]	0.91 (≈ 0.00283 µM)		2.01 (≈ 0.00626 µM)	10.1 (≈ 0.0314 µM)	7.78 (≈ 0.0242 µM)						
COc1cccc2c(=O)n3c(nc12)C(=O)c1cc(I)ccc1-3 [Example 27]	1.79 (≈ 0.00443 µM)		3.01 (≈ 0.00745 µM)		41.1 (≈ 0.102 µM)						
O=C1c2cc(Br)ccc2-n2c1nc1ccncc1c2=O [Example 39]	1.88 (≈ 0.00573 µM)	1.87 (≈ 0.0057 µM)	3.57 (≈ 0.0109 µM)	3.57 (≈ 0.0109 µM)	46 (≈ 0.14 µM)				4.2 (≈ 0.0128 µM)		
O=C1c2cc(Cl)ccc2-n2c1nc1cc(F)ccc1c2=O [Example 45]	0.728 (≈ 0.00242 µM)		1.28 (≈ 0.00426 µM)						14.2 (≈ 0.0471 µM)		
CN(CCO)c1ccc2c(=O)n3c(nc2c1)C(=O)c1cc(Cl)ccc1-3 [Example 46]	6.32 (≈ 0.0178 µM)	23 (≈ 0.0646 µM)	7.61 (≈ 0.0214 µM)	42.6 (≈ 0.12 µM)	24.4 (≈ 0.0686 µM)				66.4 (≈ 0.187 µM)		
Cc1ncc2c(=O)n3c(nc2n1)C(=O)c1cc(Cl)ccc1-3 [Example 55]	2.1 (≈ 0.00703 µM)	2.3 (≈ 0.00771 µM)	7.2 (≈ 0.0241 µM)	11.2 (≈ 0.0376 µM)	5.48 (≈ 0.0184 µM)				14.2 (≈ 0.0476 µM)		
N#CC(C#N)=c1c2cc(F)ccc2n2c(=O)c3ccccc3nc12 [Example 57]	10.6 (≈ 0.0337 µM)	28.9 (≈ 0.0921 µM)	20.3 (≈ 0.0647 µM)	46.5 (≈ 0.148 µM)	62.2 (≈ 0.198 µM)				82.6 (≈ 0.263 µM)		
CN1CCN(c2ccc3c(=O)n4c(nc3c2)C(=O)c2cc(Cl)ccc2-4)CC1 [Example 58]	2.73 (≈ 0.00717 µM)		4.52 (≈ 0.0119 µM)		8.1 (≈ 0.0213 µM)				17.3 (≈ 0.0454 µM)		
O=C1c2cc(Br)ccc2-n2c1nc1cnccc1c2=O [Example 59]	2.47 (≈ 0.00753 µM)	17.7 (≈ 0.054 µM)	4.37 (≈ 0.0133 µM)	37.9 (≈ 0.115 µM)	24 (≈ 0.0732 µM)						
O=C1c2cc(OC(F)(F)F)ccc2-n2c1nc1ccncc1c2=O [Example 63]	1.5 (≈ 0.0045 µM)	1.23 (≈ 0.00369 µM)	3.16 (≈ 0.00948 µM)	0.946 (≈ 0.00284 µM)	1.16 (≈ 0.00349 µM)				1.97 (≈ 0.0059 µM)		most effective
CN(CCO)c1ccc2c(=O)n3c(nc2c1)C(=O)c1cc(F)ccc1-3 [Example 68]	3.86 (≈ 0.0114 µM)		7.86 (≈ 0.0232 µM)		3.73 (≈ 0.011 µM)				5.47 (≈ 0.0161 µM)		
COC(OC)c1ccc2c(c1)C(=O)c1nc3ccncc3c(=O)n1-2 [Example 70]	8.69 (≈ 0.0269 µM)	6.1 (≈ 0.0189 µM)	13.2 (≈ 0.0409 µM)		11 (≈ 0.034 µM)				24.4 (≈ 0.0754 µM)		
COC(c1ccc2c(c1)C(=O)c1nc3ccncc3c(=O)n1-2)C(C)C (stereo not shown) [Example 73]	3.75 (≈ 0.0112 µM)	2.85 (≈ 0.00851 µM)	5.4 (≈ 0.0161 µM)	4.89 (≈ 0.0146 µM)	4.46 (≈ 0.0133 µM)				10.5 (≈ 0.0313 µM)		
O=C1c2cc(C3CCCCC3)ccc2-n2c1nc1ccncc1c2=O [Example 74]	3.52 (≈ 0.0106 µM)	59.8 (≈ 0.181 µM)	2.19 (≈ 0.00661 µM)	79.6 (≈ 0.24 µM)	42.5 (≈ 0.128 µM)				127 (≈ 0.384 µM)		
O=C1c2cc(OC(F)(F)F)ccc2-n2c1nc1cc(F)ccc1c2=O [Example 78]	0.86 (≈ 0.00246 µM)	0.935 (≈ 0.00267 µM)	0.93 (≈ 0.00266 µM)	1.97 (≈ 0.00561 µM)	1.76 (≈ 0.00504 µM)				3.3 (≈ 0.00941 µM)		most effective
CCc1ccc2c(c1)C(=O)c1nc3ccncc3c(=O)n1-2 [Example 83]	1.8 (≈ 0.00649 µM)	7.19 (≈ 0.0259 µM)	3.11 (≈ 0.0112 µM)	15.1 (≈ 0.0546 µM)	12.9 (≈ 0.0464 µM)				25.7 (≈ 0.0927 µM)		
O=C1c2cc(Cl)ccc2-n2c1nc1cc(SCCO)ccc1c2=O [Example 86]	2.3 (≈ 0.00641 µM)	1.91 (≈ 0.00532 µM)	3.6 (≈ 0.01 µM)	3.63 (≈ 0.0101 µM)	2.08 (≈ 0.00579 µM)						
O=C1c2cc(OC(F)(F)F)ccc2-n2c1nc1cc(SCCO)ccc1c2=O [Example 87]	3.51 (≈ 0.0086 µM)		4.92 (≈ 0.012 µM)		0.696 (≈ 0.0017 µM)				4.44 (≈ 0.0109 µM)		
C=CCO/N=C/c1ccc2c(c1)C(=O)c1nc3ccncc3c(=O)n1-2 [Example 90]	3.93 (≈ 0.0118 µM)	15.6 (≈ 0.0469 µM)	7.59 (≈ 0.0228 µM)	16.3 (≈ 0.0491 µM)	6.14 (≈ 0.0185 µM)				30 (≈ 0.0904 µM)		
O=C1c2cc(F)ccc2-n2c1nc1ccccc1c2=O [Example 91]	1.8 (≈ 0.00676 µM)	5.52 (≈ 0.0207 µM)	0.24 (≈ 0.000901 µM)	9.06 (≈ 0.034 µM)		4.977 ng/mL (≈ 0.0187 µM)	10.137 ng/mL (≈ 0.0381 µM)			9.941 ng/mL (≈ 0.0373 µM)	
